# Experimental data as given in BindingDB's records for doi:10.1021/jm00150a013 (1986).
# Molecular target: Chymotrypsinogen A (Bos taurus) (UniProt P00766)
# Test: Inhibitory activity against bovine Chymotrypsinogen expressed as inhibitory constant
smiles,measurement,value
CCCCc1c(C)oc(=O)c(CCCC)c1O,Ki,1.35 mM
